Reference: patent US20200172483A1, “HETEROCYCLIC SMALL MOLECULE MODULATORS OF HUMAN STING” (Curadev Pharma Limited, priority 2017, published 2020)
Read-outs that look alike come from different tables or passages of the source.

Tests used:
hSTING (H232) = target: T1, hSTING (H232) (Homo sapiens, UniProt Q86WV6); assay: Luciferase reporter assay in HEK293T-hSTING-Luciferase cells (H232/REF polymorph); assay type: cell-based; details: EC50 range
T1 construct: host or cells: HEK293T
Outline: (§1)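 Clonal HEK293T lines stably expressing the hSTING variant (H232 or HAQ) plus an ISRE/ISG54-driven secreted luciferase reporter were stimulated with compounds for 20 hr. Supernatant luciferase measured by luminescence (Quanti-Luc).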

NF-κB pathway = assay: Reporter gene expression assay for NFκB axis in THP1-Dual cells (secreted SEAP); assay type: cell-based, human; details: 20 hr stimulation, QUANTI-Blue SEAP, EC50 range, read-out: THP-NFKB activity
Outline: (§2)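 THP1-Dual cells (THP-1 monocytes with inducible NF-κB-SEAP and IRF-Lucia reporters; 5×10^5 cells) were stimulated with compounds for 20 hr. Secreted SEAP (QUANTI-Blue) and Lucia luciferase (QUANTI-Luc) were then measured in the supernatant. EC50 values are reported as ranges.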

WT/R232 STING protein = target: T2, WT/R232 STING protein (Homo sapiens, UniProt Q86WV6, H232R); assay: Luciferase reporter assay in HEK293T-hSTING-Luciferase cells (R232); assay type: cell-based; details: 20 hr stimulation, EC50 range
T2 construct: host or cells: HEK293T
T2 sequence (Q86WV6 whole entry H232R): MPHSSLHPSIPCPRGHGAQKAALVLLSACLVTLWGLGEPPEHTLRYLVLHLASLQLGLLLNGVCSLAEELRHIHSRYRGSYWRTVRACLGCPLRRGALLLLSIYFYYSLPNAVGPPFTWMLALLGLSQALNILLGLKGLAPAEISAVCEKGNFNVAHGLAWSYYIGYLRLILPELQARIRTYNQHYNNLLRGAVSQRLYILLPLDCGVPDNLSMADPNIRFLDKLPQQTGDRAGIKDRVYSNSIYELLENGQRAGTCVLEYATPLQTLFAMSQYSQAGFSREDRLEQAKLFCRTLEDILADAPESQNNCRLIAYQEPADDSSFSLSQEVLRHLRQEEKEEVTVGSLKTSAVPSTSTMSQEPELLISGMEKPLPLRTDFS
Outline: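 Readout is fold-induction over baseline of secreted luciferase, measured by luminescence after 20 hr compound stimulation. Cells: clonally selected HEK293T stably carrying hSTING (R232) and a luciferase reporter under five tandem ISREs fused to an ISG54 minimal promoter.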

hSTING (HAQ) = target: T3, hSTING (HAQ) (Homo sapiens, UniProt Q86WV6, G230A/H232R/R293Q/R71H); assay: Luciferase reporter assay in HEK293T-hSTING-Luciferase cells (HAQ polymorph); assay type: cell-based; details: EC50 range
T3 construct: host or cells: HEK293T
T3 sequence (Q86WV6 whole entry R71H/G230A/H232R/R293Q): as the sequence (Q86WV6 whole entry H232R) above, with R71H, G230A, R293Q counted along it
Outline: as §1

IRF pathway = assay: Reporter gene expression assay for IRF axis in THP1-Dual cells (secreted Lucia luciferase); assay type: cell-based, human; details: 20 hr stimulation, QUANTI-Luc, EC50 range, read-out: THP-IRF activity
Outline: as §2

T1 sequence (Q86WV6 whole entry): as the sequence (Q86WV6 whole entry H232R) above, with R232H counted along it

EC50 (hSTING (H232)) | EC50 (NF-κB pathway; Homo sapiens, THP1-Dual, 20 h) | EC50 (WT/R232 STING protein) | EC50 (hSTING (HAQ)) | EC50 (IRF pathway; Homo sapiens, THP1-Dual, 20 h) | EC50 (NF-κB pathway) | EC50 (IRF pathway) | Structure (SMILES)
1000 to 10000 nM | 1000 to 10000 nM | ≤ 1000 nM | 1000 to 10000 nM | 1000 to 10000 nM |  |  | CCn1nc(C)cc1CN1C(=O)C(C)(C)c2ccc(C(=O)NCc3c(F)cc(F)cc3F)cc21 [Example 117, 1-((1-ethyl-3-methyl-1H-pyrazol-5-yl)methyl)-3,3-dimethyl-2-oxo-N-(2,4,6-trifluorobenzyl)indoline-6-carboxamide]
≤ 1000 nM | 1000 to 10000 nM | ≤ 1000 nM | ≤ 1000 nM | 1000 to 10000 nM |  |  | CC1(C)C(=O)N(Cc2cccc(F)c2F)c2cc(C(=O)NCc3c(F)cc(F)cc3F)ccc21 [Example 33, 1-(2,3-difluorobenzyl)-3,3-dimethyl-2-oxo-N-(2,4,6-trifluorobenzyl)indoline-6-carboxamide]
≤ 1000 nM | 1000 to 10000 nM | ≤ 1000 nM | ≤ 1000 nM | 1000 to 10000 nM |  |  | CC1(C)C(=O)N(Cc2ccccc2F)c2cc(C(=O)NCc3c(F)cc(F)cc3F)ccc21 [Example 6, 1-(2-fluorobenzyl)-3,3-dimethyl-2-oxo-N-(2,4,6-trifluorobenzyl)indoline-6-carboxamide]
1000 to 10000 nM | > 10000 nM | 1000 to 10000 nM | 1000 to 10000 nM | > 10000 nM |  |  | Cc1ccc(CNC(=O)c2ccc3c(n2)N(Cc2cc(F)cc(F)c2)C(=O)C3(C)C)o1 [Example 188, 1-(3,5-difluorobenzyl)-3,3-dimethyl-N-((5-methylfuran-2-yl)methyl)-2-oxo-2,3-dihydro-1H-pyrrolo[2,3-b]pyridine-6-carboxamide]
1000 to 10000 nM | 1000 to 10000 nM | ≤ 1000 nM | 1000 to 10000 nM | > 10000 nM |  |  | CC1(C)C(=O)N(Cc2c(F)cccc2Cl)c2cc(C(=O)NCc3ccccc3F)ccc21 [Example 72, 1-(2-chloro-6-fluorobenzyl)-N-(2-fluorobenzyl)-3,3-dimethyl-2-oxoindoline-6-carboxamide]
≤ 1000 nM | 1000 to 10000 nM | ≤ 1000 nM | ≤ 1000 nM | 1000 to 10000 nM |  |  | CC1(C)C(=O)N(Cc2c(F)cccc2Cl)c2cc(C(=O)NCc3cc4ccc(F)cc4o3)ccc21 [Example 74, 1-(2-chloro-6-fluorobenzyl)-N-((6-fluorobenzofuran-2-yl)methyl)-3,3-dimethyl-2-oxoindoline-6-carboxamide]
≤ 1000 nM | 1000 to 10000 nM | ≤ 1000 nM | ≤ 1000 nM | 1000 to 10000 nM |  |  | COc1cc(F)cc(CN2C(=O)C(C)(C)c3ccc(C(=O)NCc4c(F)cc(F)cc4F)cc32)c1 [Example 89, 1-(3-fluoro-5-methoxybenzyl)-3,3-dimethyl-2-oxo-N-(2,4,6-trifluorobenzyl)indoline-6-carboxamide]
1000 to 10000 nM | 1000 to 10000 nM | ≤ 1000 nM | 1000 to 10000 nM | 1000 to 10000 nM |  |  | CC1(C)C(=O)N(Cc2c(F)cccc2Cl)c2cc(C(=O)NCc3cc4ccccc4o3)ccc21 [Example 36, N-(benzofuran-2-ylmethyl)-1-(2-chloro-6-fluorobenzyl)-3,3-dimethyl-2-oxoindoline-6-carboxamide]
1000 to 10000 nM | 1000 to 10000 nM | ≤ 1000 nM | 1000 to 10000 nM | > 10000 nM |  |  | Cc1cccc(CN2C(=O)C(C)(C)c3ccc(C(=O)NCc4c(F)cc(F)cc4F)cc32)c1 [Example 18, 3,3-dimethyl-1-(3-methylbenzyl)-2-oxo-N-(2,4,6-trifluorobenzyl)indoline-6-carboxamide]
≤ 1000 nM | 1000 to 10000 nM | ≤ 1000 nM | ≤ 1000 nM | 1000 to 10000 nM |  |  | CC1(C)C(=O)N(Cc2cc(F)cc(F)c2)c2cc(C(=O)NCc3c(F)cc(F)cc3F)ccc21 [Example 5, 1-(3,5-difluorobenzyl)-3,3-dimethyl-2-oxo-N-(2,4,6-trifluorobenzyl)indoline-6-carboxamide]
≤ 1000 nM | ≤ 1000 nM | ≤ 1000 nM | ≤ 1000 nM | ≤ 1000 nM |  |  | COc1cccc(F)c1CN1C(=O)C(C)(C)c2ccc(C(=O)NCc3c(F)cc(F)cc3F)cc21 [Example 102, 1-(2-fluoro-6-methoxybenzyl)-3,3-dimethyl-2-oxo-N-(2,4,6-trifluorobenzyl)indoline-6-carboxamide]
1000 to 10000 nM | 1000 to 10000 nM | ≤ 1000 nM | 1000 to 10000 nM | > 10000 nM |  |  | CC1(Cl)C(=O)N(Cc2c(F)cccc2Cl)c2cc(C(=O)NCc3c(F)cc(F)cc3F)ccc21 (centres unmarked) [Example 146, 3-chloro-1(2-chloro-6-fluorobenzyl)-3-methyl-2-oxo-N-(2,4,6-trifluorobenzyl)indoline-6-carboxamide]
1000 to 10000 nM | > 10000 nM | ≤ 1000 nM | 1000 to 10000 nM | > 10000 nM |  |  | CC1(C)C(=O)N(Cc2ccc(N=[N+]=[N-])cc2)c2cc(C(=O)NCc3c(F)cc(F)cc3F)ccc21 [Example 56, 1-(4-azidobenzyl)-3,3-dimethyl-2-oxo-N-(2,4,6-trifluorobenzyl)indoline-6-carboxamide]
> 10000 nM | > 10000 nM | ≤ 1000 nM | > 10000 nM | > 10000 nM |  |  | CCC1(Cl)C(=O)N(Cc2c(F)cccc2Cl)c2cc(C(=O)NCc3c(F)cc(F)cc3F)ccc21 (centres unmarked) [Example 155, 3-chloro-1-(2-chloro-6-fluorobenzyl)-3-ethyl-2-oxo-N-(2,4,6-trifluorobenzyl)indoline-6-carboxamide]
1000 to 10000 nM | > 10000 nM | ≤ 1000 nM | 1000 to 10000 nM | > 10000 nM |  |  | CC1(C)C(=O)N(Cc2c(F)cccc2Cl)c2cc(C(=O)NCc3cccc(F)c3)ccc21 [Example 12, 1-(2-chloro-6-fluorobenzyl)-N-(3-fluorobenzyl)-3,3-dimethyl-2-oxoindoline-6-carboxamide]
1000 to 10000 nM | > 10000 nM | 1000 to 10000 nM | 1000 to 10000 nM | > 10000 nM |  |  | CC1(C)C(=O)N(Cc2cc(F)cc(F)c2)c2nc(C(=O)NCc3ccccc3)ccc21 [Example 191, N-benzyl-1-(3,5-difluorobenzyl)-3,3-dimethyl-2-oxo-2,3-dihydro-1H-pyrrolo[2,3-b]pyridine-6-carboxamide]
≤ 1000 nM |  | ≤ 1000 nM | ≤ 1000 nM |  | 1000 to 10000 nM | > 10000 nM | CC1(C#N)C(=O)N(Cc2c(F)cccc2Cl)c2cc(C(=O)NCc3c(F)cc(F)cc3F)ccc21 (centres unmarked) [Example 165, 1-(2-chloro-6-fluorobenzyl)-3-cyano-3-methyl-2-oxo-N-(2,4,6-trifluorobenzyl)indoline-6-carboxamide]
1000 to 10000 nM | 1000 to 10000 nM | 1000 to 10000 nM | 1000 to 10000 nM | 1000 to 10000 nM |  |  | C=CCC1(C)C(=O)N(Cc2cc(C)nn2CC)c2cc(C(=O)NCc3c(F)cc(F)cc3F)ccc21 (centres unmarked) [Example 175, 3-allyl-1-((1-ethyl-3-methyl-1H-pyrazol-5-yl)methyl)-3-methyl-2-oxo-N-(2,4,6-trifluorobenzyl)indoline-6-carboxamide]
1000 to 10000 nM | 1000 to 10000 nM | 1000 to 10000 nM | 1000 to 10000 nM | > 10000 nM |  |  | CC1(C)C(=O)N(Cc2c(F)cccc2Cl)c2cc(C(=O)NCc3ccc4occc4c3)ccc21 [Example 71, N-(benzofuran-5-ylmethyl)-1-(2-chloro-6-fluorobenzyl)-3,3-dimethyl-2-oxoindoline-6-carboxamide]
